Reference: ChEMBL document CHEMBL4177710, “Bisindolylmethane thiosemicarbazides as potential inhibitors of urease: Synthesis and molecular modeling studies” (Bioorg Med Chem, 2018)

Biological target: Urease (Canavalia ensiformis, UniProt P07374)
Assay: Inhibition of jack bean urease assessed as reduction in ammonia production using urea as substrate after 15 mins by indophenol method

Sequence of Urease (P07374 whole entry): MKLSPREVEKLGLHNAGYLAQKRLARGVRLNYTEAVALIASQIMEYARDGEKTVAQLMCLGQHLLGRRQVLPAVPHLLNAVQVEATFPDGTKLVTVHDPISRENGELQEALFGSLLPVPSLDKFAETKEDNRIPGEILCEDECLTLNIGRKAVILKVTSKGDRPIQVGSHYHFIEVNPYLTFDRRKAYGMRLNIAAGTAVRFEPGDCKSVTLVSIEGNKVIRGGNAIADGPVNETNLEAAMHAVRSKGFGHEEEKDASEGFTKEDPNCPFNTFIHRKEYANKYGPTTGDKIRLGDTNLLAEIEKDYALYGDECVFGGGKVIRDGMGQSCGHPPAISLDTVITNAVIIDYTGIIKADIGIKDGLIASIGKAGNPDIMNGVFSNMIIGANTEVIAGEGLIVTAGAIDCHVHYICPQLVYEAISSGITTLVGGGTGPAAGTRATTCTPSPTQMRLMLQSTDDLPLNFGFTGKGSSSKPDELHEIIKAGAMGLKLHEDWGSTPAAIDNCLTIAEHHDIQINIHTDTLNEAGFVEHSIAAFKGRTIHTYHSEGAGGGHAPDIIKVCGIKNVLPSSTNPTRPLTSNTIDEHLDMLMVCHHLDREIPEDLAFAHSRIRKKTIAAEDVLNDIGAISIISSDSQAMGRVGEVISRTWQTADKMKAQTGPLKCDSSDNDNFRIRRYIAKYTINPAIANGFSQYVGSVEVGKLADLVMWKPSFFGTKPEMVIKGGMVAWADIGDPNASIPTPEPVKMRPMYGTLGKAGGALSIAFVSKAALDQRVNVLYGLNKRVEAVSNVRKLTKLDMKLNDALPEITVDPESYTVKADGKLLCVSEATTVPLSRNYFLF

Compared with `Cc1ccc(NC(=S)NNC(=O)c2ccc3[nH]cc(C(c4ccc(C)cc4)c4c[nH]c5ccc(C(=O)NNC(=S)Nc6ccc(C)cc6)cc45)c3c2)cc1`, `Cc1ccc(C(c2c[nH]c3ccc(C(=O)NNC(=S)Nc4ccc(F)cc4)cc23)c2c[nH]c3ccc(C(=O)NNC(=S)Nc4ccc(F)cc4)cc23)cc1` is 3.8-fold lower in IC50: 4200 nM for the first, 1100 nM for the second.

`Cc1ccc(C(c2c[nH]c3ccc(C(=O)NNC(=S)Nc4ccccc4C)cc23)c2c[nH]c3ccc(C(=O)NNC(=S)Nc4ccccc4C)cc23)cc1` and `Cc1ccc(C(c2c[nH]c3ccc(C(=O)NNC(=S)Nc4ccccc4Br)cc23)c2c[nH]c3ccc(C(=O)NNC(=S)Nc4ccccc4Br)cc23)cc1` are within 1.5-fold of each other in IC50: 3300 nM for the first, 2500 nM for the second.

First: Cc1ccc(C(c2c[nH]c3ccc(C(=O)NNC(=S)Nc4ccccc4F)cc23)c2c[nH]c3ccc(C(=O)NNC(=S)Nc4ccccc4F)cc23)cc1
Second: Cc1ccc(C(c2c[nH]c3ccc(C(=O)NNC(=S)Nc4ccccc4Cl)cc23)c2c[nH]c3ccc(C(=O)NNC(=S)Nc4ccccc4Cl)cc23)cc1
The IC50 of the first is 1.5-fold lower: 800 nM for the first, 1200 nM for the second.

First: Cc1ccc(C(c2c[nH]c3ccc(C(=O)NNC(=S)Nc4ccc(Cl)c(Cl)c4)cc23)c2c[nH]c3ccc(C(=O)NNC(=S)Nc4ccc(Cl)c(Cl)c4)cc23)cc1
Second: Cc1ccc(C(c2c[nH]c3ccc(C(=O)NNC(=S)Nc4ccc(Cl)cc4)cc23)c2c[nH]c3ccc(C(=O)NNC(=S)Nc4ccc(Cl)cc4)cc23)cc1
The IC50 of the first is 20-fold lower: 140 nM for the first, 2750 nM for the second. The first is the more potent here.

Going from `Cc1ccc(C(c2c[nH]c3ccc(C(=O)NNC(=S)NC45CC6CC(CC(C6)C4)C5)cc23)c2c[nH]c3ccc(C(=O)NNC(=S)NC45CC6CC(CC(C6)C4)C5)cc23)cc1` (stereo not drawn) to `Cc1ccc(C(c2c[nH]c3ccc(C(=O)NNC(=S)Nc4cccc(C)c4)cc23)c2c[nH]c3ccc(C(=O)NNC(=S)Nc4cccc(C)c4)cc23)cc1`, the IC50 falls from 18500 nM to 5100 nM (3.6-fold).

`Cc1ccc(C(c2c[nH]c3ccc(C(=O)NNC(=S)Nc4cccc([N+](=O)[O-])c4)cc23)c2c[nH]c3ccc(C(=O)NNC(=S)Nc4cccc([N+](=O)[O-])c4)cc23)cc1` and `Cc1ccc(C(c2c[nH]c3ccc(C(=O)NNC(=S)Nc4ccc([N+](=O)[O-])cc4)cc23)c2c[nH]c3ccc(C(=O)NNC(=S)Nc4ccc([N+](=O)[O-])cc4)cc23)cc1` are within 1.5-fold of each other in IC50: 7600 nM for the first, 9500 nM for the second.

`COc1ccccc1NC(=S)NNC(=O)c1ccc2[nH]cc(C(c3ccc(C)cc3)c3c[nH]c4ccc(C(=O)NNC(=S)Nc5ccccc5OC)cc34)c2c1` and `COc1cccc(NC(=S)NNC(=O)c2ccc3[nH]cc(C(c4ccc(C)cc4)c4c[nH]c5ccc(C(=O)NNC(=S)Nc6cccc(OC)c6)cc45)c3c2)c1` are within 1.5-fold of each other in IC50: 8400 nM for the first, 12100 nM for the second.

`Cc1ccc(C(c2c[nH]c3ccc(C(=O)NNC(=S)Nc4ccc(Br)cc4)cc23)c2c[nH]c3ccc(C(=O)NNC(=S)Nc4ccc(Br)cc4)cc23)cc1` and `Cc1ccc(C(c2c[nH]c3ccc(C(=O)NNC(=S)Nc4cccc(Br)c4)cc23)c2c[nH]c3ccc(C(=O)NNC(=S)Nc4cccc(Br)c4)cc23)cc1` are within 1.5-fold of each other in IC50: 1300 nM for the first, 1800 nM for the second.

Going from `Cc1ccc(C(c2c[nH]c3ccc(C(=O)NNC(=S)Nc4cccc(F)c4)cc23)c2c[nH]c3ccc(C(=O)NNC(=S)Nc4cccc(F)c4)cc23)cc1` to `Cc1ccc(C(c2c[nH]c3ccc(C(=O)NNC(=S)Nc4ccc(C(F)(F)F)cc4)cc23)c2c[nH]c3ccc(C(=O)NNC(=S)Nc4ccc(C(F)(F)F)cc4)cc23)cc1`, the IC50 falls from 980 nM to 500 nM (2-fold).
